Data on one compound can be found in patent US12590100B2, “Tetrahydro-spiroindoline-pyrrolopyrrole-triones inhibitors of the NRF2-β-TrCP interaction for use in the treatment of fatty liver disease” (Universidad Autonoma De Madrid, priority 2021, dated 2026).

For test [1], the system named is transcriptional activity of NRF2. As to the kind of experiment: ARE luciferase reporter assay in MCF-7 c32 ARE-LUC cells. Particulars: 9 μM, 16 h. The test is classed as cell-based. As to the method:
FIG. 4. […] MEFs in serum-depleted conditions were subjected to (A-C) 1 μM, 3 μM, or 10 μM of PHAR and 10 μM of SFN as a positive control for 16 h; or (D-F) 10 μM of PHAR for the indicated times. In both experiments, 0.1% DMSO was used as a vehicle. A), representative immunoblots of NRF2, HO1, KEAP1, LAMINB, and GAPDH as loading controls. B) and C), densitometric analysis of NRF2 and HO1 protein levels of the representative immunoblots depicted in (A), expressed as a ratio of NRF2/LAMINB or HO1/GAPDH. The data is depicted as means±SEM (n=3). Statistical analysis was performed with one-way ANOVA followed by the Bonferroni test to check inter-group differences. *p<0.05; ***p<0.001 vs. 0. D), representative immunoblots of NRF2, HO1, KEAP1, LAMINB, and GAPDH as loading controls. E) and F), Densitometric analysis of NRF2 and HO1 protein levels of the representative immunoblots of (D), expressed as a ratio of NRF2/LAMINB or HO1/GAPDH. The data is depicted as means±SEM (n=3). Statistical analysis was performed with one-way ANOVA followed by the Bonferroni test to check inter-group differences. *p<0.05; ***p<0.001 vs. 0. […] Luciferase activity was measured after 16 h of treatment. […] The mRNA levels of Hmox1, Nqo1, Aox1, Glc, and Gclm after 8 h of treatment were determined by means of pRT-PCR and normalized by means of average LaminB, Gapdh, and β-actin. […]

In test [2] the test system is NRF2. As to the kind of experiment: NRF2 and HO-1 protein levels in mouse tissues after IP treatment. The test is classed as in vivo. The conditions noted are these: C57BL/6 mice, single IP 50 mg/kg, 120 min. The protocol: FIG. 9. PHAR activates NRF2 and HO-1 in liver. A), UV and MS spectrum derived from the HPLC-MS analysis of PHAR dissolved in methanol for the identification of peaks associated with the compound. A blue rectangle surrounds the mass associated with PHAR. (B-D), the mice were treated with the vehicle (Tween-80+PBS, 1:13), 50 mg/kg of PHAR, or 50 mg/kg of SFN (saline) as a positive control by means of intraperitoneal (IP) injection for 2 hours. B), HPLC-MS UV and MS spectra derived from representative liver samples of both experimental groups used for determining PHAR levels in the liver 120 min after a single IP injection of 50 mg/kg. A blue rectangle surrounds the mass associated with PHAR. C), representative immunoblots showing NRF2, HO1, and LAMINB protein levels as the liver extract loading control. D), densitometric analysis of NRF2 protein levels of the representative immunoblots shown in (C), expressed as a ratio of NRF2/LAMINB. Statistical analysis was performed with one-way ANOVA followed by the Bonferroni test to compare inter-group differences. ***p<0.001 vs. vehicle. E) and F), the mice were treated daily with vehicle (Tween-80+PBS, 1:13) or 50 mg/kg of PHAR by means of intraperitoneal injection for 5 days. E), representative immunoblots showing NRF2, HO1, and LAMINB protein levels as loading control in brain, liver and kidney. F), densitometric analysis of NRF2 and HO1 protein levels in the liver tissue of the representative immunoblots shown in (E), expressed as a ratio of NRF2/LAMINB or HO1/LAMINB levels. Statistical analysis was performed with a Student t test to compare inter-group differences. **p<0.01 vs. vehicle.
Once the mechanism of action of PHAR was deciphered, the capacity thereof to induce NRF2 levels in a murine model was evaluated. C57BL/6 mice received a single intraperitoneal (IP) injection of 50 mg/kg PHAR (Tween-80+PBS, 1:13) or 50 mg/kg of SFN (saline) as a positive control. The UV spectrum derived from the HPLC-MS study of the PHAR compound dissolved in methanol alone helped the identification of the peak associated with the compound for subsequent identification in the tissue analysis. […] Taking this as a reference point, liver tissue analysis was performed to check for the presence of PHAR therein.
For this reason, C57BL/6 mice were treated daily by IP route for 5 days with 50 mg/kg of vehicle or 50 mg/kg of PHAR.

Test [3] deals with NRF2. The experiment in a line: NRF2 and HO-1 protein levels in MEFs (immunoblot). The test is classed as cell-based, mouse. Particulars: SFN 10 μM. As to the method:
FIG. 4. […] MEFs in serum-depleted conditions were subjected to (A-C) 1 μM, 3 μM, or 10 μM of PHAR and 10 μM of SFN as a positive control for 16 h; or (D-F) 10 μM of PHAR for the indicated times. In both experiments, 0.1% DMSO was used as a vehicle. A), representative immunoblots of NRF2, HO1, KEAP1, LAMINB, and GAPDH as loading controls. B) and C), densitometric analysis of NRF2 and HO1 protein levels of the representative immunoblots depicted in (A), expressed as a ratio of NRF2/LAMINB or HO1/GAPDH. The data is depicted as means±SEM (n=3). Statistical analysis was performed with one-way ANOVA followed by the Bonferroni test to check inter-group differences. *p<0.05; ***p<0.001 vs. 0. D), representative immunoblots of NRF2, HO1, KEAP1, LAMINB, and GAPDH as loading controls. E) and F), Densitometric analysis of NRF2 and HO1 protein levels of the representative immunoblots of (D), expressed as a ratio of NRF2/LAMINB or HO1/GAPDH. The data is depicted as means±SEM (n=3). Statistical analysis was performed with one-way ANOVA followed by the Bonferroni test to check inter-group differences. *p<0.05; ***p<0.001 vs. 0. G), Reporter MCF-7 c32 ARE-luc cells were subjected to 1 μM, 3 μM, or 9 μM of PHAR and 10 μM of SFN as a positive control. 0.1% DMSO was used as a vehicle. Luciferase activity was measured after 16 h of treatment. The data is depicted as means±SEM (n=3). Statistical analysis was performed with one-way ANOVA followed by the Bonferroni test to check inter-group differences. **p<0.01; ***p<0.001 vs. 0. H), MTT assay to evaluate cell viability/toxicity after treatments. I), Serum-deprived MEFs were subjected to 10 μM of PHAR. The mRNA levels of Hmox1, Nqo1, Aox1, Glc, and Gclm after 8 h of treatment were determined by means of pRT-PCR and normalized by means of average LaminB, Gapdh, and β-actin. The data is depicted as means±SEM (n=3). Statistical analysis was performed with the Student's T test. *p<0.05; **p<0.01 ***p<0.001 vs. 0.
In order to empirically determine if PHAR activates NRF2, mouse embryo fibroblasts (MEFs) were treated with several doses of the compound (1 μM, 3 μM, and […]) for 16 h and with 10 μM of sulforaphane (SFN), one of main electrophilic activators of NRF2, used as a positive control.
Moreover, a time course of NRF2 activation with PHAR (10 μM for 2, 4, and 8 h) or with SFN (10 μM, 8 h) was done as a positive control.

As for `C[S+]([O-])CCCCN=C=S` (stereo not shown) [SFN, sulforaphane, reference compound], the “increase in luciferase activity” value in test [1] was “similar”. For the same compound, the “liver NRF2 levels” value in the test with NRF2 [2] is “accumulation caused by SFN”. Moreover, the NRF2 accumulation entry with NRF2 [3] (16 h, PHAR 1, 3, 9 μM) was “accumulation induced by SFN”. Also, in the test with NRF2 [3] (PHAR 10 μM for 2, 4, 8 h, 8 h), the “NRF2 accumulation, time course” value was “induction generated by SFN”.
